Laboratory results: patent publication US20220112192A1, “COMPOUNDS AND METHODS OF USE THEREOF FOR TREATMENT OF CANCER” (ARAXES PHARMA LLC, priority 2018, published 2022)

Target: T1, KRAS G12C 1-169, his-tagged protein, GDP-loaded (Homo sapiens, UniProt P01116, G12C)
T1 construct: KRAS G12C 1-169, his-tagged protein, GDP-loaded
Experiment: Biochemical assay: covalent modification of KRAS G12C measured by mass spectrometry
Assay type: binding
Settings: modification of KRAS G12C at 10 minutes
Experimental: Test compounds were prepared as 10 mM stock solutions in DMSO (Fisher cat #BP-231-100). KRAS G12C 1-169, his-tagged protein, GDP-loaded was diluted to 2 μM or 0.5 μM in buffer (20 mM Hepes, 150 mM NaCl, 1 mM MgCl2).
Compounds were tested for activity as follows: Compounds were diluted to 50× final test concentration in DMSO in 96-well storage plates. Compound stock solutions were vortexed before use and observed carefully for any sign of precipitation. Dilutions were as follow: • For 100 μM final compound concentration, compounds were diluted to 5000 μM (5 μL 10 mM compound stock+5 μL DMSO and mixed well by pipetting. • For 30 μM final compound concentration, compounds were diluted to 1500 μM (3 μL 10 mM compound stock+17 μL DMSO) and mixed well by pipetting. • For 10 μM final compound concentration, compounds were diluted to 500 μM (2 μL 10 mM compound stock+38 μL DMSO) and mixed well by pipetting. 49 μL of the stock protein solution was added to each well of a 96-well PCR plate (Fisher cat #1423027). 1 μL of the diluted 50× compounds were added to appropriate wells in the PCR plate using 12-channel pipettor. Reactions were mixed carefully and thoroughly by pipetting up/down with a 200 μL multi-channel pipettor. The plate was sealed well with aluminum plate seal, and stored in drawer at room temperature for 10 minutes, 30 minutes, 2 hours or 24 hours. 5 μL of 2% formic acid (Fisher cat #A117) in de-ionized H2O was then added to each well followed by mixing with a pipette. The plate was then resealed with aluminum seal and stored on dry ice until analyzed as described below.
The above described assays are analyzed by mass spectrometry according to one of the following two procedures:
The MS instrument was set to positive polarity, 2 GHz resolution, and low mass (1700) mode and allowed to equilibrate for 30 minutes. The instrument was then calibrated, switched to acquisition mode and the appropriate method loaded.
After another 30 minute equilibration time, a blank batch (i.e., buffer) was run to ensure equipment is operating properly. The samples are thawed at 37° C. for 10 minutes, briefly centrifuged, and transferred to the bench top. Wells A1 and H12 were spiked with 1 μL 500 μM internal standard peptide, and the plates centrifuged at 2000×g for 5 minutes. The method was then run and masses of each individual well recorded.
The masses (for which integration data is desired) for each well were pasted into the platemap and exported from the analysis. Masses for the internal standards were exported as well. The data at 50 ppm was extracted for the +19 charge state, and identity of well A1 was assigned using the internal standard spike and integrated. Peak data was exported as a TOF list and the above steps are repeated individually, for the +20, 21, 22, 23, 24, and 25 charge states.
? -Exactive Assay:
The masses and peak intensities of KRAS G12C protein species were measured using a Dionex RSLCnano system (Thermo Scientific) connected to a Q Exactive Plus mass spectrometer (Thermo Scientific). […] of sample was each loaded onto a Aeris™ […] WIDEPORE C4 200 Å, LC Column 50×2.1 mm column maintained at 40° C. at a flow rate of 600 μL/min with 20% Solvent A (0.1% formic acid in H2O) and […] (0.1% formic acid in acetonitrile). The liquid chromatography conditions were 20% solvent B for 1 minute, 20% to 60% solvent B for 1.5 minutes, 60% to 90% solvent for 0.5 minute, 90% solvent B for 0.2 minute, 90% to 20% solvent B for 0.2 minute, and then equilibrated for 1.6 minutes before the following sample injection. The flow rate was maintained at 600 μL/min throughout sample analysis.
The mass spectrometer was operated in profile mode at a resolution of 17500, 5 microscans, using 50 msec max injection time and an AGC target of 1×10^6, and a full mass range from 800-1850 m/z was recorded. The HCD trapping gas was optimized for maximum sensitivity for intact proteins. […]

Compound | Binding %
C=CC(=O)N1CC2(CCN(c3nc(OC[C@@H]4CCCN4C)nc4c(F)c(-c5c(C)ccc6[nH]ncc56)c(Cl)cc34)CC2)C1 [Compound I-6, 1-(7-(6-chloro-8-fluoro-7-(5-methyl-1H-indazol-4-yl)-2-(((S)-1-methylpyrrolidin-2-yl)methoxy)quinazolin-4-yl)-2,7-diazaspiro[3.5]nonan-2-yl)prop-2-en-1-one] | +++ (+++ indicates binding activity greater than 85% at 10 minutes)
C=CC(=O)N1CC2(CCN(c3c(Cl)c(-c4c(C)ccc5[nH]ncc45)c(OCC(F)(F)F)c4nc(OC[C@@H]5CCCN5C)ncc34)C(C)C2)C1 (stereo partly drawn) [Compound I-76, 1-(7-(6-chloro-7-(5-methyl-1H-indazol-4-yl)-2-(((S)-1-methylpyrrolidin-2-yl)methoxy)-8-(2,2,2-trifluoroethoxy)quinazolin-5-yl)-6-methyl-2,7-diazaspiro[3.5]nonan-2-yl)prop-2-en-1-one] | ++ (++ indicates binding activity from 50 to 85% at 10 minutes)
1-(6-(7-(5-methyl-1H-indazol-4-yl)-2-(((S)-1-methylpyrrolidin-2-yl)methoxy)-8-(2,2,2-trifluoroethoxy)-6-vinylquinazolin-4-yl)-2,6-diazaspiro[3.4]octan-2-yl)prop-2-en-1-one [Compound I-74] | ++ (++ indicates binding activity from 50 to 85% at 10 minutes)
C=CC(=O)N1CC2(CCN(c3nc(OC[C@@H]4CCCN4C)nc4c(F)c(-c5c(C)ccc6cnn(C)c56)c(Cl)cc34)CC2)C1 [Compound I-2, 1-(7-(6-chloro-7-(1,6-dimethyl-1H-indazol-7-yl)-8-fluoro-2-(((S)-1-methylpyrrolidin-2-yl)methoxy)quinazolin-4-yl)-2,7-diazaspiro[3.5]nonan-2-yl)prop-2-en-1-one] | +++ (+++ indicates binding activity greater than 85% at 10 minutes)
C=CC(=O)N1CC2(CCN(c3nc(OC[C@@H]4CCCN4C)nc4c(F)c(-c5c(C)ccc6cnn(C)c56)c(Cl)cc34)C2)C1 [Compound I-1, 1-(6-(6-chloro-7-(1,6-dimethyl-1H-indazol-7-yl)-8-fluoro-2-(((S)-1-methylpyrrolidin-2-yl)methoxy)quinazolin-4-yl)-2,6-diazaspiro[3.4]octan-2-yl)prop-2-en-1-one] | ++ (++ indicates binding activity from 50 to 85% at 10 minutes)
C=CC(=O)C1CC2(CCN1c1nc(=O)n(-c3ccccc3C(C)C)c3cc(-c4c(C)ccc5[nH]ncc45)c(Cl)cc13)CNC2 (single isomer, unassigned) [II-5a, 4-(6-acryloyl-2,7-diazaspiro[3.5]nonan-7-yl)-6-chloro-1-(6-isopropylphenyl)-7-(5-methyl-1H-indazol-4-yl)quinazolin-2(1H)-one] | + (+ indicates binding activity greater than 0% and up to 50% at 10 minutes)
C=CC(=O)C1CC2(CCN1c1nc(=O)n(-c3ccccc3C(C)C)c3cc(-c4c(C)ccc5[nH]ncc45)c(Cl)cc13)CNC2 (single isomer, unassigned) [II-5b, 4-(6-acryloyl-2,7-diazaspiro[3.5]nonan-7-yl)-6-chloro-1-(6-isopropylphenyl)-7-(5-methyl-1H-indazol-4-yl)quinazolin-2(1H)-one] | ++ (++ indicates binding activity from 50 to 85% at 10 minutes)
C=CC(=O)N1CC2(CCN(c3nc(OC[C@@H]4CCCN4C)nc4c(F)c(-c5c(C)ccc6cn[nH]c56)c(Cl)cc34)CC2)C1 [Compound I-3, 1-(7-(6-chloro-8-fluoro-7-(6-methyl-1H-indazol-7-yl)-2-(((S)-1-methylpyrrolidin-2-yl)methoxy)quinazolin-4-yl)-2,7-diazaspiro[3.5]nonan-2-yl)prop-2-en-1-one] | +++ (+++ indicates binding activity greater than 85% at 10 minutes)
1-(6-(6-chloro-7-(5-methyl-1H-indazol-4-yl)-2-(((S)-1-methylpyrrolidin-2-yl)methoxy)-8-(2,2,2-trifluoroethoxy)quinazolin-4-yl)-2,6-diazaspiro[3.4]octan-2-yl)prop-2-en-1-one [Compound I-75] | +++ (+++ indicates binding activity greater than 85% at 10 minutes)
